The series can be described thus: Osmolarity of the contrast agent composition. Particulars: comparator, hyperosmolar. Format: physicochemical. An excerpt:
For comparison, Dotarem® (gadoteric acid, GUERBET, FRANCE) is hyperosmolar at 1574 mosm, which can cause side effects in humans related to the hypertonicity of a hyperosmolar product creating an intense call of water from the interstitial and cellular spaces to the plasma, responsible for pain or heat. A pain threshold of 600 mOsm/kg has been set.

The text below walks through data of patent publication US20260232805A1, “METHODS FOR IMAGING USING SPCCT” (NH THERAGUIX, priority 2022, published 2026).

As for `O=C([O-])CN1CCN(CC(=O)[O-])CCN(CC(=O)O)CCN(CC(=O)[O-])CC1.[Gd+3]` [Dotarem®, gadoteric acid], the Osmolarity worked out at 1574 mosm.
